In brackets after ≈: the same amount, converted by molar mass.
In the case of CC1(C)[C@H](/C=C(\Cl)C(F)(F)F)[C@@H]1C(=O)O[C@H](C#N)c1cccc(Oc2ccccc2)c1, the logP is reported as 6.8.

In the case of CCC(C)Nc1c([N+](=O)[O-])cc(C(C)(C)C)cc1[N+](=O)[O-] (stereo unspecified), the logP is reported as 4.93.

Clc1ccc(CSC(Cn2cncn2)=Nc2ccc(Cl)cc2Cl)cc1 showed a logP of 4.94.

CC(C)Oc1cccc(NC(=O)c2ccccc2C(F)(F)F)c1 gave a solubility (20 °C) of 0.0244 mM (≈ 7.88 µg/mL).

With CCS(=O)(=O)c1cccnc1S(=O)(=O)NC(=O)Nc1nc(OC)cc(OC)n1 the logD (pH 5.0) was 0.29.

Cc1cccc(C)c1N(Cn1cccn1)C(=O)CCl showed a logP of 2.13.

Molecule CSC(=O)c1cccc2nnsc12 has a logP of 3.1 and a solubility (25 °C) of 0.0366 mM (≈ 7.7 µg/mL).

Work on CC(C)(COCc1cccc(Oc2ccccc2)c1)c1ccc(OC(F)(F)Br)cc1 yielded a solubility (25 °C) of 1.05e-07 mM (≈ 5e-05 µg/mL).

Work on CC1(C)OC[C@@H]2O[C@@]3(C(=O)O)OC(C)(C)O[C@H]3[C@@H]2O1 yielded a logP of 1.35.

For CCCN(CCC)c1c([N+](=O)[O-])cc(C(F)(F)F)c(N)c1[N+](=O)[O-], the logP was 4.1.

Work on Cc1cccc(C)c1N(C(=O)CCl)C1CCOC1=O (stereo unspecified) yielded a logP of 1.39 and a solubility (20 °C) of 0.518 mM (≈ 146 µg/mL).

O=C(NC(=O)c1c(F)cccc1F)Nc1cc(Cl)c(OC(F)(F)C(F)C(F)(F)F)cc1Cl (stereo unspecified) gave a logP of 5.12.

CS/C(C)=N/OC(=O)N(C)SN(C)C(=O)O/N=C(\C)SC gave a solubility (25 °C) of 0.0729 mM (≈ 25.8 µg/mL).

CCOc1nc(NC)nc(NC(=O)NS(=O)(=O)c2ccccc2C(=O)OC)n1 gave a logD (pH 5.0) of 1.59 and a solubility (pH 5.0, 25 °C) of 0.00414 mM (≈ 1.7 µg/mL).

Work on CCN(CC)c1nc(C)cc(OP(=S)(OC)OC)n1 yielded a solubility (pH 7.3, 20 °C) of 0.0455 mM (≈ 13.9 µg/mL).

With C=CCOC1=NS(=O)(=O)c2ccccc21 the solubility was 0.672 mM (≈ 150 µg/mL).

In the case of CCN(Cc1c(F)cccc1Cl)c1c([N+](=O)[O-])cc(C(F)(F)F)cc1[N+](=O)[O-], the logP is reported as 5.45.

Work on CCCN(CCC)c1c([N+](=O)[O-])cc(C(F)(F)F)cc1[N+](=O)[O-] yielded a solubility (pH 5.0, 25 °C) of 0.000701 mM (≈ 0.235 µg/mL).

Work on COP(N)(=O)SC (stereo unspecified) yielded a logP of -0.8.

For FC(F)(F)C(=NOCC1OCCO1)c1ccc(Cl)cc1, the logP was 2.9 and the solubility (20 °C) was 0.0969 mM (≈ 30 µg/mL).

Work on CC(C)(C)N(NC(=O)c1ccc(Cl)cc1)C(=O)c1ccccc1 yielded a logP of 3.22 and a solubility of 0.0363 mM (≈ 12 µg/mL).

For C[Si](Cn1cncn1)(c1ccc(F)cc1)c1ccc(F)cc1, the solubility (pH 7.2, 20 °C) was 0.171 mM (≈ 54 µg/mL).

Work on O=C1CC(C(=O)O)CC(=O)C1=C(O)C1CC1 (stereo unspecified) yielded a logD (pH 2.0) of 1.8 and a solubility (pH 5.0, 20 °C) of 5.8 mM (≈ 1300 µg/mL).

CON=C(Cc1cccnc1)c1ccc(Cl)cc1Cl showed a logP of 3.7.

With CCC(Nc1ncnc(C)c1Cl)c1ccc(OC(F)F)cc1 (stereo unspecified) the solubility was 0.101 mM (≈ 33 µg/mL).

With CC#CCOC(C)c1ccc(OC)c(OC)c1 (stereo unspecified) the logP was 2.4 and the solubility was 0.00427 mM (≈ 1 µg/mL).

Cc1ccn2nc(S(=O)(=O)Nc3c(F)cccc3F)nc2n1 showed a solubility (pH 2.5) of 0.15 mM (≈ 48.7 µg/mL).

With O=CNC(N1CCN(C(NC=O)C(Cl)(Cl)Cl)CC1)C(Cl)(Cl)Cl (stereo unspecified) the logP was 2.2.

Molecule O=C(Nc1ccc(Cl)cc1C(O)c1ccccc1)c1ccncc1 (stereo unspecified) has a logP of 3.13.

Molecule Nc1c(Cl)cc([N+](=O)[O-])cc1Cl has a logP of 2.8.

With CC(C)OC(=O)c1cc(C(=O)OC(C)C)cc([N+](=O)[O-])c1 the solubility (20 °C) was 0.00914 mM (≈ 2.7 µg/mL).

In the case of C[C@H](Oc1ccc(Oc2nc3ccc(Cl)cc3o2)cc1)C(=O)O, the solubility (pH 5.1, 20 °C) is reported as 0.809 mM (≈ 270 µg/mL).

In the case of COc1cc(OC)nc(NC(=O)NS(=O)(=O)c2ncccc2C(=O)N(C)C)n1, the logP is reported as 0.01.

With CC1(C)[C@H](C(=O)O[C@H](C#N)c2cccc(Oc3ccccc3)c2)[C@@H]1/C=C\C(=O)OC(C(F)(F)F)C(F)(F)F the solubility (25 °C) was 3.69e-05 mM (≈ 0.02 µg/mL).

Molecule CNC(=O)N(C)c1nnc(C(C)(C)C)s1 has a solubility (25 °C) of 10.5 mM (≈ 2400 µg/mL).

Molecule CCCSP(=S)(OCC)Oc1ccc(SC)cc1 (stereo unspecified) has a logP of 5.48.

Work on CCN(CC)C(=O)n1cnc(S(=O)(=O)c2c(C)cc(C)cc2C)n1 yielded a logP of 3.21.

CC1(C)C(C=C(Cl)Cl)C1C(=O)OC(C#N)c1ccc(F)c(Oc2ccccc2)c1 (stereo unspecified) gave a solubility (20 °C) of 6.91e-06 mM (≈ 0.003 µg/mL).

Work on CNC(=O)ON=C(SC)C(=O)N(C)C yielded a solubility (25 °C) of 1280 mM (≈ 280000 µg/mL).

CCOC(=O)C1CC(=O)C(=C(O)C2CC2)C(=O)C1 (stereo unspecified) gave a logP of 1.6.

CN(C(O)=NC(C)(C)c1ccccc1)c1ccccc1 gave a logP of 3.01.

For CCSCCSP(=S)(OC)OC, the logP was 3.15.

For C=C/C=C\CC1=C(C)[C@@H](OC(=O)[C@@H]2[C@@H](C=C(C)C)C2(C)C)CC1=O, the logP was 5.9.

Molecule NC(=O)C1(N2C(=O)c3cccc(Cl)c3C2=O)CCCCC1 has a solubility (25 °C) of 0.0978 mM (≈ 30 µg/mL).

CCOC(=O)c1cnn(C)c1S(=O)(=O)NC(=O)Nc1nc(OC)cc(OC)n1 gave a logP of 1.3.

CC(C)(C)c1cc([N+](=O)[O-])cc([N+](=O)[O-])c1O gave a solubility (pH 5.0, 20 °C) of 0.0187 mM (≈ 4.5 µg/mL).

Work on C[N+]1(C)CCCCC1.[Cl-] yielded a logD (pH 7.0) of -2.82.

Work on N#Cc1c(Cl)cccc1Cl yielded a solubility (20 °C) of 0.105 mM (≈ 18 µg/mL).

For O=C([O-])C(F)(F)C(F)F.[Na+], the logP was 1.32 and the solubility (20 °C) was 131 mM.

CCOC(=O)C(Cl)Cc1cc(-n2nc(C)n(C(F)F)c2=O)c(F)cc1Cl (stereo unspecified) gave a logP of 3.36 and a solubility (25 °C) of 0.0534 mM (≈ 22 µg/mL).

With COc1cc(OC)n2nc(S(=O)(=O)Nc3c(Cl)ccc(C)c3Cl)nc2n1 the logP was 3.08 and the solubility (20 °C) was 0.478 mM (≈ 200 µg/mL).

O=C(Nc1ccc(F)cc1F)c1cccnc1Oc1cccc(C(F)(F)F)c1 gave a solubility (25 °C) of under 0.000127 mM.

For CC[C@H]1O[C@]2(CC[C@@H]1C)C[C@@H]1C[C@@H](CC=C(C)C[C@@H](C)C=CC=C3CO[C@@H]4[C@H](O)C(C)=C[C@@H](C(=O)O1)[C@]34O)O2, the logP was 5.9 and the solubility (20 °C) was 0.0133 mM (≈ 7.2 µg/mL).

Molecule CCOCOc1ccc(C(=O)Nc2cccc(Cl)c2Cl)cc1 has a logP of 4.3 and a solubility (25 °C) of 0.0027 mM (≈ 0.92 µg/mL).

For COCC(=O)N(c1c(C)cccc1C)C(C)C(=O)OC (stereo unspecified), the solubility (24 °C) was 36.4 mM (≈ 10200 µg/mL).

In the case of CC1=CC[C@@H]2C[C@@H](C[C@]3(CC[C@H](C)[C@@H](C)O3)O2)OC(=O)[C@@H]2C=C(C)[C@@H](O)[C@H]3OCC(=CC=C[C@H](C)C1)[C@]32O, the logP is reported as 5.3 and the solubility (20 °C) is reported as 0.00166 mM (≈ 0.88 µg/mL).

Work on CC1(C)CCC(Cc2ccc(Cl)cc2)C1(O)Cn1cncn1 (stereo unspecified) yielded a logP of 3.85.

O=C1c2ccccc2C(=O)N1SC(Cl)(Cl)Cl gave a solubility (25 °C) of 0.0027 mM (≈ 0.8 µg/mL).

C#CCN1CC(=O)N(COC(=O)[C@@H]2[C@@H](C=C(C)C)C2(C)C)C1=O gave a logP of 2.9 and a solubility (25 °C) of 0.294 mM (≈ 93.5 µg/mL).

CNC(=O)Oc1cc(C)cc(C)c1 gave a solubility (20 °C) of 2.62 mM (≈ 470 µg/mL).

With CC(C)OC(=O)C(O)(c1ccc(Br)cc1)c1ccc(Br)cc1 the logP was 5.4.

With CCOP(=S)(OCC)Oc1ncn(-c2ccccc2)n1 the logP was 3.34 and the solubility (pH 7.0, 20 °C) was 0.0992 mM (≈ 31.1 µg/mL).

Work on CC1=NNC(=O)N(/N=C/c2cccnc2)C1 yielded a logP of -0.18 and a solubility (25 °C) of 1.34 mM (≈ 290 µg/mL).

Work on CC(C)OC(=O)[C@@H](C)N(C(=O)c1ccccc1)c1ccc(F)c(Cl)c1 yielded a logP of 3.69.

Work on CCOP(=S)(OCC)OC(Cl)C(Cl)(Cl)Cl (stereo unspecified) yielded a solubility (20 °C) of under 0.00298 mM.

In the case of CNC(=O)Oc1cccc(N=CN(C)C)c1.Cl, the solubility (25 °C) is reported as 3190 mM.

With O=C(NC(=O)c1c(F)cccc1F)Nc1cc(Cl)c(F)c(Cl)c1F the solubility (23 °C) was 5.12e-05 mM (≈ 0.0195 µg/mL).

With CN(C(=O)COc1nc2ccccc2s1)c1ccccc1 the logP was 3.23.

Molecule CC1(C)OC(c2ccco2)CN1C(=O)C(Cl)Cl (stereo unspecified) has a logP of 2.12 and a solubility (20 °C) of 0.708 mM (≈ 197 µg/mL).

Molecule CC(C)NC(=O)N1CC(=O)N(c2cc(Cl)cc(Cl)c2)C1=O has a logP of 3.

Work on CC(Oc1ccc(Oc2ncc(C(F)(F)F)cc2Cl)cc1)C(=O)O (stereo unspecified) yielded a solubility (pH 2.6, 25 °C) of 0.12 mM (≈ 43.4 µg/mL).

Work on COC(=O)[C@@H](C)N(C(=O)c1ccccc1)c1ccc(F)c(Cl)c1 yielded a logP of 3.

Molecule C=C/C=C\CC1=C(C)[C@@H](OC(=O)[C@@H]2[C@@H](/C=C(\C)C(=O)OC)C2(C)C)CC1=O has a logP of 4.3.

Work on COP(=O)(OC)OC1=C(Cl)C2C=CCC12 (stereo unspecified) yielded a logP of 2.32.

Work on CCOCCOC(=O)C(C)Oc1ccc(Oc2ncc(C(F)(F)F)cc2Cl)cc1 (stereo unspecified) yielded a solubility (20 °C) of 0.00134 mM (≈ 0.58 µg/mL).

Work on CCOc1ccc(C(C)(C)COCc2cccc(Oc3ccccc3)c2)cc1 yielded a solubility (25 °C) of under 2.66e-06 mM.

With CN(C)c1nc(=O)n(C2CCCCC2)c(=O)n1C the solubility (25 °C) was 131 mM (≈ 33000 µg/mL).

In the case of O=C(NC(=O)c1ccccc1Cl)Nc1ccc(OC(F)(F)F)cc1, the logP is reported as 4.91 and the solubility (20 °C) is reported as 6.97e-05 mM (≈ 0.025 µg/mL).
